How the values were obtained:
[1] = target: T1, B-RAF G466V (Homo sapiens, UniProt P15056, G466V); test: Target protein degradation, assay D: T-Rex 293 cells, HA-BRAF_G466V, 384 well format; format: cell-based; conditions: T-Rex 293 HA-BRAF_G466V cells, 24 hours, Examples 83-269; for DC50: Assay D; for Dmax: T-REx-293, Assay D
T1 construct: expressed in transfected cells; host or cells: T-Rex 293 cells (Invitrogen #R71007)
Description: D. T-Rex 293 Cells (384 Well Format)
(§1) T-Rex 293 cells were purchased from Invitrogen (#R71007), and stably transfected with a pcDNA4/TO_HA-BRAF_G466V construct, using 400 ug Zeocin for selection. G466V cells are plated in DMEM media (Gibco #11965118) containing 10% FBS (Gibco #16000044), 1% penicillin-streptomycin (ThermoFisher #15140122), 1:250 zeocin (Invitrogen #R-25005), and 1 ng/mL doxycycline (Selleckchem #4163) at a density of 7,500 cells/well in 45 μl on PDL coated, black clear bottom 384 well plates (Corning #354663) and incubated at 37° C.+5% CO2 for 24 hours. The following day, PROTAC compounds in a 1:3 11 point dilution are diluted into DMEM media using an Agilent Bravo. 5 ul of PROTACs suspended in DMEM media are added to the cells, with a final assay concentration ranging from 300 nM to 5 pM in 0.5% DMSO. Plates are incubated at 37° C.+5% CO2 for 24 hours. At the end of treatment, media is aspirated, and cells are fixed in 50 uL 4% PFA (EMS #15710) in PBS++(PBS, 1 mM CaCl, 1 mM MgCl) at RT for 15 minutes. Cells are washed 2× with 60 uL PBS++ and permeabilized in 50 uL 1% Triton X-100 (Sigma #93443) in PBS++ for 5 minutes at RT. Cells are washed in PBS++ prior to blocking with 50 uL Licor blocking buffer (Licor #927-60001) for 1 hour at RT. HA-tagged BRAF was stained using 50 uL HA antibody (CST #3724) at 1:1000 in Licor blocking buffer for two hours at RT. Primary is aspirated before adding 50 ul of secondary antibody solution containing 1:1000 Hoechst (ThermoFisher #62249), 1:1000 HCS CellMask Deep Red Stain (ThermoFisher #H32721), and 1:5000 goat anti-rabbit IgG Alexa-Fluor 488 (ThermoFisher #A32731) in PBS++ for 1 hr at RT. Plates are washed 4× with 60 uL PBS++, then sealed with Adhesive Black Light Absorbing Film (VWR #89087-692) and imaged on the ThermoFisher CX7 PRO high content instrument. BRAF intensity is quantified in HCS Studio software (ThermoFisher), using a custom script, exported, analyzed using KNIME, and curve curation is performed in an ELN (Scilligence). Cell toxicity is measured via comparing number of nuclei in PROTAC treated wells to DMSO controls.
(§2) The concentration of an exemplary compound that leads to half maximal degradation (DC50) as well as the maximum degradation observed (Dmax, conventionally expressed as a percentage of control) is shown below in Table 2.

[2] = target: T2, B-RAF V600E (Homo sapiens, UniProt P15056, V600E); test: Target protein degradation, assay C: T-Rex 293 cells, HA-BRAF_V600E, 384 well format; format: cell-based; conditions: T-Rex 293 HA-BRAF_V600E cells, 24 hours, Examples 83-269; for Dmax: T-REx-293, Assay C
T2 construct: expressed in transfected cells; host or cells: T-Rex 293 cells (Invitrogen #R71007)
Description: C. T-Rex 293 Cells (384 Well Format)
as §1, with “pcDNA4/TO_HA-BRAF_V600E” for “pcDNA4/TO_HA-BRAF_G466V”, “V600E” for “G466V”
as §2

T1 sequence (P15056 whole entry G466V): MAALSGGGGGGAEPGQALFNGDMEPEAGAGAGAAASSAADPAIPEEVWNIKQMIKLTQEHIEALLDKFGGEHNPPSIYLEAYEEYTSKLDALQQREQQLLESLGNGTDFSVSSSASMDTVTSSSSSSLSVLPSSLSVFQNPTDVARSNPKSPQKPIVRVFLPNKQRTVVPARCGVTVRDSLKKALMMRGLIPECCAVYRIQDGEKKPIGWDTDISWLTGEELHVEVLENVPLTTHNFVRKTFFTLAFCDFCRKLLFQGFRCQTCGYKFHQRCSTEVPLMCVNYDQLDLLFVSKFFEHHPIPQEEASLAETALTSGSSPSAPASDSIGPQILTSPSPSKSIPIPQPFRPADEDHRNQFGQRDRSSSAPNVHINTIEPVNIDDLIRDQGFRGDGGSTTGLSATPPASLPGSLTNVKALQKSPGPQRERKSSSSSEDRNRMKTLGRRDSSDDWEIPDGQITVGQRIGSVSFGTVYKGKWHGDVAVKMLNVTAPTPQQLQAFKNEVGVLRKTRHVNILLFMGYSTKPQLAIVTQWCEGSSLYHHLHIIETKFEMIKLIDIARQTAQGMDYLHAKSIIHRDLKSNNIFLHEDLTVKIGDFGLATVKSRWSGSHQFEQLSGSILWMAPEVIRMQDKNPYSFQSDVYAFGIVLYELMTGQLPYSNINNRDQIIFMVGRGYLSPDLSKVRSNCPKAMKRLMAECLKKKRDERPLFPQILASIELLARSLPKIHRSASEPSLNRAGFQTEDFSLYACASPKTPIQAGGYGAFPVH
T2 sequence (P15056 whole entry V600E): as the sequence (P15056 whole entry G466V) above, with V466G, V600E counted along it

Row | SMILES | DC50 [1] [nM] | Dmax [1] [%] | DC50 ([2]; Assay C) [nM] | Dmax [2] [%] | B-RAF V600E DMax (%) ([2]; Assay C)
1 | N#Cc1c(NS(=O)(=O)N2CC[C@@H](F)C2)ccc(F)c1Oc1ccc2ncn(-c3ccc(N4CC(CN5CC(c6ccc7c(c6)CN([C@@H]6CCC(=O)NC6=O)C7=O)C5)C4)cc3)c(=O)c2c1 [Example 205, (3R)-N-(2-cyano-3-{[3-(4-{3-[(3-{2-[(3R)-2,6-dioxopiperidin-3-yl]-1-oxo-2,3-dihydro-1H-isoindol-5-yl}azetidin-1-yl)methyl]azetidin-1-yl}phenyl)-4-oxo-3,4-dihydroquinazolin-6-yl]oxy}-4-fluorophenyl)-3-fluoropyrrolidine-1-sulfonamide] | 1 to 10 | ≤ 35 | 50 to 500 | ≤ 35 | –
2 | N#Cc1c(NS(=O)(=O)N2CC[C@@H](F)C2)ccc(F)c1Oc1ccc2ncn(-c3ccc(N4CCC(CN5CCC6(CC5)CCN(c5ccc7c(c5)CN([C@H]5CCC(=O)NC5=O)C7=O)CC6)CC4)cc3)c(=O)c2c1 [Example 228, (3R)-N-(2-cyano-3-{[3-(4-{4-[(9-{2-[(3S)-2,6-dioxopiperidin-3-yl]-1-oxo-2,3-dihydro-1H-isoindol-5-yl}-3,9-diazaspiro[5.5]undecan-3-yl)methyl]piperidin-1-yl}phenyl)-4-oxo-3,4-dihydroquinazolin-6-yl]oxy}-4-fluorophenyl)-3-fluoropyrrolidine-1-sulfonamide] | 1 to 10 | 35 to 70 | 50 to 500 | 35 to 70 | –
3 | C[C@H]1CN(CC2CCN(c3ccc4c(c3F)CN([C@H]3CCC(=O)NC3=O)C4=O)CC2)CCN1c1ccc(-n2cnc3ccc(Oc4c(F)ccc(NS(=O)(=O)N5CC[C@@H](F)C5)c4C#N)cc3c2=O)cc1 [Example 117, (3R)-N-{2-cyano-3-[(3-(4-[(2S)-4-[(1-{2-[(3S)-2,6-dioxopiperidin-3-yl]-4-fluoro-1-oxo-2,3-dihydro-1H-isoindol-5-yl}piperidin-4-yl)methyl]-2-methylpiperazin-1-yl]phenyl}-4-oxo-3,4-dihydroquinazolin-6-yl)oxy]-4-fluorophenyl}-3-fluoropyrrolidine-1-sulfonamide] | – | – | 50 to 500 | 35 to 70 | –
4 | Cc1cc(N2CCC(CN3CCN(c4ccc(-n5cnc6ccc(Oc7c(F)ccc(NS(=O)(=O)N8CC[C@@H](F)C8)c7C#N)cc6c5=O)cc4)CC3)CC2)c(F)c2c1C(=O)N(C1CCC(=O)NC1=O)C2 (single isomer, unassigned) [Example 121, (3R)-N-(2-cyano-3-{[3-(4-{4-[(1-{2-[(3R*)-2,6-dioxopiperidin-3-yl]-4-fluoro-7-methyl-1-oxo-2,3-dihydro-1H-isoindol-5-yl}piperidin-4-yl)methyl]piperazin-1-yl}phenyl)-4-oxo-3,4-dihydroquinazolin-6-yl]oxy}-4-fluorophenyl)-3-fluoropyrrolidine-1-sulfonamide] | – | – | 50 to 500 | – | B (35 < B < 70)
5 | C[C@H]1CN(CC2CCN(c3ccc4c(c3F)CN([C@@H]3CCC(=O)NC3=O)C4=O)CC2)CCN1c1ccc(-n2cnc3ccc(Oc4c(F)ccc(NS(=O)(=O)N5CC[C@@H](F)C5)c4C#N)cc3c2=O)cc1 [Example 118, (3R)-N-{2-cyano-3-[(3-(4-[(2S)-4-[(1-{2-[(3R)-2,6-dioxopiperidin-3-yl]-4-fluoro-1-oxo-2,3-dihydro-1H-isoindol-5-yl}piperidin-4-yl)methyl]-2-methylpiperazin-1-yl]phenyl}-4-oxo-3,4-dihydroquinazolin-6-yl)oxy]-4-fluorophenyl}-3-fluoropyrrolidine-1-sulfonamide] | – | – | > 500 | – | –
6 | N#Cc1c(NS(=O)(=O)N2CC[C@@H](F)C2)ccc(F)c1Oc1ccc2ncn(-c3ccc(N4CCC(CN5CC6(CC(c7ccc8c(c7)C(=O)N(C7CCC(=O)NC7=O)C8=O)C6)C5)CC4)cc3)c(=O)c2c1 (stereo partly drawn) [Example 119, (3R)-N-{2-cyano-3-[(3-{4-[4-({6-[2-(2,6-dioxopiperidin-3-yl)-1,3-dioxo-2,3-dihydro-1H-isoindol-5-yl]-2-azaspiro[3.3]heptan-2-yl}methyl)piperidin-1-yl]phenyl}-4-oxo-3,4-dihydroquinazolin-6-yl)oxy]-4-fluorophenyl}-3-fluoropyrrolidine-1-sulfonamide] | – | – | > 500 | – | –
7 | Cc1cc(N2CCC(CN3CCN(c4ccc(-n5cnc6ccc(Oc7c(F)ccc(NS(=O)(=O)N8CC[C@@H](F)C8)c7C#N)cc6c5=O)cc4)CC3)CC2)c(F)c2c1C(=O)N(C1CCC(=O)NC1=O)C2 (single isomer, unassigned) [Example 120, (3R)-N-(2-cyano-3-{[3-(4-{4-[(1-{2-[(3R*)-2,6-dioxopiperidin-3-yl]-4-fluoro-7-methyl-1-oxo-2,3-dihydro-1H-isoindol-5-yl}piperidin-4-yl)methyl]piperazin-1-yl}phenyl)-4-oxo-3,4-dihydroquinazolin-6-yl]oxy}-4-fluorophenyl)-3-fluoropyrrolidine-1-sulfonamide] | – | – | 5 to 50 | ≤ 35 | –
8 | N#Cc1c(NS(=O)(=O)N2CC[C@@H](F)C2)ccc(F)c1Oc1ccc2ncn(-c3ccc(N4CCN(CC5CCN(c6ccc7c(c6)CN(C6CCC(=O)NC6=O)C7=O)CC5)CC4)s3)c(=O)c2c1 (stereo partly drawn) [Example 116, (3R)-N-{2-cyano-3-[(3-{5-[4-({1-[2-(2,6-dioxopiperidin-3-yl)-1-oxo-2,3-dihydro-1H-isoindol-5-yl]piperidin-4-yl}methyl)piperazin-1-yl]thiophen-2-yl}-4-oxo-3,4-dihydroquinazolin-6-yl)oxy]-4-fluorophenyl}-3-fluoropyrrolidine-1-sulfonamide] | – | – | 50 to 500 | ≤ 35 | –
9 | CCN(C)S(=O)(=O)Nc1ccc(F)c(Oc2ccc3ncn(-c4ccc(N5CCC(CN6CCC(c7ccc8c(c7)CN(C7CCC(=O)NC7=O)C8=O)CC6)CC5)cc4)c(=O)c3c2)c1C#N (centres unmarked) [Example 115, 2-[(3-{4-[4-({4-[2-(2,6-dioxopiperidin-3-yl)-1-oxo-2,3-dihydro-1H-isoindol-5-yl]piperidin-1-yl}methyl)piperidin-1-yl]phenyl}-4-oxo-3,4-dihydroquinazolin-6-yl)oxy]-6-{[ethyl(methyl)sulfamoyl]amino}-3-fluorobenzonitrile] | – | – | 50 to 500 | 35 to 70 | –
